Measurements taken from publication PMC9022420 (Scientific Reports, 2022).
“And” between values parts separate entries of the source, which are not always exact repeats. Identical values can stand only once.

Columns and labels:
[1] = UV-Vis absorption and emission spectra of flavins in DMSO; format: physicochemical; conditions: measured in DMSO
[2] = Fluorescence quantum yield determination; format: physicochemical; conditions: in DMSO; for φF fluorescence quantum yield: calculated using riboflavin as the reference
Experimental: 4 Fluorescence Quantum Yield Calculations
The fluorescence quantum yields (ФF) for F1-4 were determined by preparing a series of dilutions in DMSO ranging
in absorbance values from 0.02 to 0.10 and excited at their respective absorbance maxima (see Table S1).3 The
emission peak was then integrated and plotted against the absorbance value (see Figure S1). Riboflavin (from
according to equation (1):
Φ!;#$%&’( = Φ!;)(* $ !"#$%&% $ !"#$%&) % (1)
Where Slope = gradient from the plot of integrated emission peak vs. absorption value and η = refractive index
Flavin ε (M-1cm-1) λex (nm) λem (nm)
Figure S2: Plot of integrated emission peak against absorbance value of flavins F1-4 and reference compound

[3] = Singlet oxygen quantum yield determination; format: physicochemical; conditions: in MeCN; for φΔ singlet oxygen quantum yield: calculated using Ru(bpy)3^2+ as the reference
[4] = Flavin photostability in PBS under white LED irradiation; format: physicochemical; conditions: 100 µM in PBS, white LED 1 × 10^5 lx, 30 min irradiation
Excerpt: After successful synthesis and initial characterisation, we monitored the photostability of the compounds in PBS (1x, pH 7.4) which was used for PDI assays as distilled or ultrapure water destabilises bacterial cells and coronaviruses through osmotic pressures[37],[38], thereby augmenting inactivation results. […] This yields lumichrome as the major degradation product which can only act as a PS under UV-irradiation[40]. […] However, it appears that guanidino substitution in our case improves the photostability.
Figure S4: (A) Flavin photostability (100 µM) in PBS (0.1% DMSO) irradiated with 1x105 lx (35 mW/cm2) where A
= Abs at 450 nm and A0 = Abs at 450 nm at 0 min.
photostability. Experiments were performed using a quartz cuvette and measured using an Agilent Cary 300
(1 picture or pasted object on this page, not shown here)

E. coli BL21(DE3) = test: Photodynamic inactivation of E. coli (CFU counting); format: cell-based
Experimental: After an overnight aerobic culture in LB broth at 37 °C with shaking at 225 rpm, the resulting E. coli were centrifuged at 2,500 rpm for 10 min. The pellet was resuspended in PBS (Sigma, 1x, pH 7.4) to an OD600 value of 0.6 (~ 1 × 10^8 bacteria per ml). […] Aliquots of negative controls (0.5% DMSO in PBS; PBS only) and 100 μM flavin-bacteria samples were covered in foil to remain in dark, while all samples were plated onto a 96-well plate and exposed to white LED irradiation (1 × 10^5 lx) for 15 min. After 15 min of irradiation or darkness, each sample was serially diluted to its respective, appropriate dilution and plated onto an LB agar plate with 50 μg/mL kanamycin. Plates were incubated overnight at 37 °C in the dark. Survival of bacteria was determined by counting colony forming units (CFUs) the next day.
For time point data, aliquots of 100 μM flavin-bacteria solutions were taken at 5-min increments of irradiation (0, 5, 10, and 15 min) and evaluated similarly as above. Time point experiment with one-minute increments, between 0 and 5 min, were conducted for 100 μM F4-bacteria samples.

[5] = test system: murine hepatitis virus A59 strain (MHV-A59); test: Photodynamic inactivation of MHV-A59 (TCID50 assay in 17Cl-1 cells); format: cell-based
Experimental: The efficacy of the flavins were enumerated utilizing modified methods from ISO 18,184 and Leibowitz et al.[56] […] 100 µM working stock solutions were then created by diluting each DMSO solution into PBS. To control for the effect of DMSO on MHV-A59, DMSO was diluted into PBS at the same concentration. A white light apparatus was set up to cover a 4 × 5 (row x column) area of a 96-well plate with the same level of light intensity (1 × 10^5 lx). The stock solutions were then diluted in replicates of four to a total of 180 µl in PBS at 1, 5, and 10 µM concentrations for each sample. Virus stocks of MHV-A59 were thawed on ice prior to use. 20 µl of MHV-A59 stock (1.4 × 10^9 PFU/ml) was then mixed into each well, and the 4 × 5 well matrix was treated with the light or incubated in the dark at room temperature for a specified time (5, 10, or 15 min).
After treatment, the samples were mixed into 320 µl of Gibco Difco™ Beef Extract (1.5% w/v beef extract in ddH2O; Life Technologies) and rolled for 15 min to chelate any free ions in the solution. The samples then were serially diluted (10^0–10^–7) in infectivity media (Dulbecco’s modified Eagle’s medium low glucose 1 g/L (DMEM, Life Technologies) supplemented with 2.5% fetal bovine serum (Merck), 3% tryptose phosphate broth (Merck), 1 × non-essential amino acids (Gibco), 1 × antibiotic–antimycotic (Thermo Fisher Scientific) and 1 × L-Glutamine (Gibco]) and added in triplicate to 17Cl-1 cell plates. For each sample or control there were 4 replicate treatments (in light or dark); each treatment replicate was plated in triplicate. Infected 17Cl-1 plates were incubated at 37 °C in a 5% CO2 atmosphere for 24 h. Plates were scored for cytopathic effect (CPE) by microscopy and viral titres were determined by the Reed and Muench 50% tissue culture infectious dose (TCID50) end point method. Outliers were removed from the four replicates using an outlier test. The full protocol was repeated in triplicate on different days to account for any variability in the assay.

WI-38 cells = test: 24 h MTS cytotoxicity assay, WI-38; format: cell-based; conditions: Homo sapiens, 24 h incubation, dark
Experimental: (§1) The MTS tetrazolium compound is reduced by cells into a coloured formazan product which is soluble in cell culture media. It can be detected colorimetrically between 450 and 540 nm with the measured absorbance directly proportional to the amount of metabolically active cells in culture. Cells were seeded into clear 96-well plates containing 10,000 cells/well in 100 µL complete growth medium and cultured for 24 h at 37 °C and 5% CO2. […] After further 24 h incubation at 37 °C and 5% CO2, 20 µL of CelTiter 96® AQueous One Solution (Promega) was added into each well and incubated at 37 °C, 5% CO2 for 1–4 h, according to the manufacturer’s instruction. The absorbance of each well was measured at 490 nm using a plate reader (Spark, Tecan). Control measurements included negative control of cells with DMEM, cells with DMEM containing 0.1% DMSO, cell-free culture media (blank) and cell-free sample dilutions in culture media to evaluate potential sample interferences with MTS assay. All experiments were conducted in biological triplicates. The percentage cell viability was calculated according to Eq. (1):1 Cell viability(%)=100×Absorbanceoftreatedcells-Absorbanceofblank/Absorbanceofcontrol-Absorbanceofblank

17Cl-1 cells = test: 24 h MTS cytotoxicity assay, 17Cl-1; format: cell-based, murine; conditions: Mus musculus, 24 h incubation, dark
Experimental: as §1

[6] = 10 µM flavin, 15 min irradiation
[7] = 100 µM flavin, 10 min irradiation
[8] = 1 µM flavin, 10 min irradiation (21.0 J/cm^2)
[9] = 5 µM flavin, 10 min irradiation
[10] = 100 µM flavin, 5 min irradiation (10.5 J/cm^2)
[11] = 10 µM flavin, 10 min irradiation

Compound | λ1 (S0 → S1 absorption band) [1] [nm] | λ2 (S0 → S2 absorption band) [1] [nm] | λem (emission wavelength) [1] [nm] | ФF fluorescence quantum yield [2] [%] | φF fluorescence quantum yield [2] | ФΔ singlet oxygen quantum yield [3] [%] | φΔ singlet oxygen quantum yield [3] | photodecomposition / degradation [4] | E. coli log10 reduction of CFUs (E. coli BL21(DE3); [6]) [log10] | E. coli log10 reduction of CFUs (E. coli BL21(DE3); [7]) [log10] | MHV-A59 log10 reduction in viral titre [5, 8] [log10] | MHV-A59 viral load reduction [5, 9] [%] | IC50 (WI-38 cells) [µM] | IC50 (17Cl-1 cells) [µM] | E. coli log10 reduction of CFUs (E. coli BL21(DE3); [10]) [log10] | MHV-A59 log10 reduction in viral titre [5, 9] [log10] | MHV-A59 log10 reduction in viral titre [5, 11] [log10] | further results
CCCCCCCCn1c(=O)nc2n(CCNC(=N)N)c3cc(Br)c(Br)cc3nc-2c1=O [Flavin F4] | 444 | 340 | 513 | < 2 | 0.011 ± 0.010 | 62 | 0.62 ± 0.10 | ~30% | 2.8 | 8.7 | 3.4 | > 99.99 | > 100 | 50.9 |  |  |  | E. coli reduction of bacteria (E. coli BL21(DE3); 100 µM flavin, 1 min irradiation): > 99.99%; E. coli log10 reduction of CFUs (E. coli BL21(DE3); 100 µM flavin, 1 min irradiation (2.10 J/cm^2), calculated vs t0 = 7.9): 4.1 log10 and > 4 log10; bacterial inactivation, log10 reduction (E. coli BL21(DE3); 15 min irradiation at 11 μM): > 3 log10; viral inactivation, log10 reduction ([5]; 15 min irradiation at 1 μM): > 3 log10
CCCCCCCCn1c(=O)nc2n(CCN)c3cc(C)c(C)cc3nc-2c1=O [Flavin F1] | 444 | 349 | 507 | 13 | 0.129 ± 0.012 |  | 0.49 ± 0.12 | around 40% | 0.2 | 0.1 |  |  | 96.1 | 70.2 | 0.1 | 1.7 | 2.1 | MHV-A59 log10 reduction in viral titre ([5]; 10 µM flavin, 5 min irradiation (10.5 J/cm^2)): 1.2 log10; MHV-A59 log10 reduction in viral titre ([5]; 10 µM flavin, 15 min irradiation (31.5 J/cm^2)): 2.2 log10
CCCCCCCCn1c(=O)nc2n(CCN)c3cc(Br)c(Br)cc3nc-2c1=O [Flavin F3] | 443 | 336 | 508 | < 2 | 0.009 ± 0.013 | 85 | 0.85 ± 0.09 | ~60% | 0.4 | 1.7 | 2.1 | > 99.99 | 30.9 | 3.66 | 1.3 | 4.1 | 4.8 | E. coli log10 reduction of CFUs (E. coli BL21(DE3); 100 µM flavin, 15 min irradiation): 1.8 log10
CCCCCCCCn1c(=O)nc2n(CCNC(=N)N)c3cc(C)c(C)cc3nc-2c1=O [Flavin F2] | 446 | 350 | 512 | 14 | 0.141 ± 0.010 | 55 | 0.55 ± 0.10 | approximately 10% |  | 5.9 | 2.1 | > 99.9 | > 100 | > 100 | 3.4 | 3.9 | 3.8 | E. coli reduction of bacteria (E. coli BL21(DE3); 100 µM flavin, 5 min irradiation): > 99.9%
